# According to patent publication US9493446B2, “Orexin receptor antagonists which are [ortho bi-(hetero-)aryl]-[2-(meta bi-(hetero-)aryl)-pyrrolidin-1-yl]-methanone derivatives” (Actelion Pharmaceuticals Ltd, priority 2012, dated 2016):
# Read-outs that look alike come from different tables or passages of the source.
# Tests used:
# [1] = target: human orexin-2 receptor (Homo sapiens (Human), UniProt O43614); test: Intracellular calcium measurement (FLIPR), CHO cells expressing human orexin-2 receptor, 3 nM orexin-A; assay type: cell-based; settings: read-out: IC50 OX2
# In short: (§1)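 HBSS buffer with 0.1% BSA, NaHCO3 and 20 mM HEPES carries both compounds and agonist. Dye: fluo-4 AM (3 μM) with 5 mM probenecid. Compound exposure 120 min; peak signal scored against uninhibited orexin-A response.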
# [2] = target: orexin-1 (Homo sapiens (Human), UniProt O43613); test: Intracellular calcium measurement (FLIPR), CHO cells expressing human orexin-1 receptor, 3 nM orexin-A; assay type: cell-based; settings: CHO cells expressing human orexin-1 receptor, FLIPR, 3 nM orexin-A; geometric mean if determined several times; read-out: IC50 OX1
# In short: as §1
# [3] = CHO cells expressing human orexin-2 receptor, FLIPR, 3 nM orexin-A, geometric mean if determined several times
# Chain of orexin-1 (O43613 whole entry): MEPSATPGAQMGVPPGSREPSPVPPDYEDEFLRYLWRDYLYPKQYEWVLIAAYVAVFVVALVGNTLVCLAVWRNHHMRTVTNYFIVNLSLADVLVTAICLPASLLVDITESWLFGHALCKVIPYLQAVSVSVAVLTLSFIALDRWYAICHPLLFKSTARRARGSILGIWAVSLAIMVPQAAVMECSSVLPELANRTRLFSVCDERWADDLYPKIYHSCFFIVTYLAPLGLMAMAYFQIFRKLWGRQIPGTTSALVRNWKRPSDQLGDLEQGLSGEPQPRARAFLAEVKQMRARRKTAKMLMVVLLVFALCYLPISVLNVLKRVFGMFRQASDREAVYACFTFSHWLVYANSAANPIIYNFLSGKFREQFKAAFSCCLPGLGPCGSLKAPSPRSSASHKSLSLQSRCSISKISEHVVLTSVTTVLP
# Chain of human orexin-2 receptor (O43614 whole entry): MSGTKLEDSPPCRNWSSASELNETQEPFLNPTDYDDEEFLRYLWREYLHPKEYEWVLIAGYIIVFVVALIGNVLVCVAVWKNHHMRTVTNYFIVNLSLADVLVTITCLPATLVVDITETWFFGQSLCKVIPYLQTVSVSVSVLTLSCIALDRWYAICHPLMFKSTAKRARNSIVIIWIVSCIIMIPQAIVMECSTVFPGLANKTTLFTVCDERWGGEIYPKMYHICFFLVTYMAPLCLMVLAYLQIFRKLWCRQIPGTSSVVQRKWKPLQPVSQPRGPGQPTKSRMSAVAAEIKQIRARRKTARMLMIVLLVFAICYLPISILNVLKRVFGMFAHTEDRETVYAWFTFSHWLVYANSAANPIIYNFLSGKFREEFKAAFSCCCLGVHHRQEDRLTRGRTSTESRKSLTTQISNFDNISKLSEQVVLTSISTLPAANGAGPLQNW
Structure (SMILES),IC50 [2] [nM],"IC50 [1, 3] [nM]",IC50 [1] [nM]
COc1ccccc1-c1nnc([C@@H]2CCCN2C(=O)c2cc(Cl)c(C)cc2-n2nccn2)[nH]1 [compound 469],25,–,45
COc1ccc(-n2nccn2)c(C(=O)N2CCC[C@H]2c2nc(-c3ccccc3Cl)no2)c1 [compound 240],1330,147,–
"Cc1ccc(C(=O)N2CCC[C@H]2c2nc(-c3cccc(F)c3C)no2)c(-n2nccn2)c1 [compound 246, {(S)-2-[3-(3-Fluoro-2-methyl-phenyl)-[1,2,4]oxadiazol-5-yl]-pyrrolidin-1-yl}-(4-methyl-2-[1,2,3]triazol-2-yl-phenyl)-methanone]",135,14,–
COc1cc(C(=O)N2CCC[C@H]2c2noc(-c3cccc(Cl)c3C)n2)c(-n2nccn2)cc1C [compound 320],25,1,–
"Cc1cc(C(=O)N2CCC[C@H]2c2noc(-c3cccc(C)c3C)n2)c(-n2nccn2)cc1C [compound 400, {(S)-2-[5-(2,3-Dimethyl-phenyl)-[1,2,4]oxadiazol-3-yl]-pyrrolidin-1-yl}-(4,5-dimethyl-2-[1,2,3]triazol-2-yl-phenyl)-methanone]",36,4,–
Cc1noc(-c2ccccc2C(=O)N2CCC[C@H]2c2nc(-c3cccc(Cl)c3C)no2)n1 [compound 267],501,177,–

# Further lines, with some results ahead:
IC50 [2] [nM],"IC50 [1, 3] [nM]",Structure (SMILES),IC50 [1] [nM]
296,135,"CCOc1ncccc1-c1noc([C@@H]2CCCN2C(=O)c2cc(C#N)ccc2-n2nccn2)n1 [compound 279, 3-{(S)-2-[3-(2-Ethoxy-pyridin-3-yl)-[1,2,4]oxadiazol-5-yl]-pyrrolidine-1-carbonyl}-4-[1,2,3]triazol-2-yl-benzonitrile]",–
600,177,"Cc1ccc(-n2nccn2)c(C(=O)N2CCC[C@H]2c2nc(-c3ccc(F)c(F)c3)no2)c1 [compound 20, {(S)-2-[3-(3,4-Difluoro-phenyl)-[1,2,4]oxadiazol-5-yl]-pyrrolidin-1-yl}-(5-methyl-2-[1,2,3]triazol-2-yl-phenyl)-methanone]",–
59,2,"COc1cc(C(=O)N2CCC[C@H]2c2noc(-c3cccc(F)c3C)n2)c(-n2nccn2)cc1C [compound 310, {(S)-2-[5-(3-Fluoro-2-methyl-phenyl)-[1,2,4]oxadiazol-3-yl]-pyrrolidin-1-yl}-(5-methoxy-4-methyl-2-[1,2,3]triazol-2-yl-phenyl)-methanone]",–
90,6,"COc1cc(C(=O)N2CCC[C@H]2c2nc(-c3cccc(F)c3OC)no2)c(-c2ncccn2)cc1C [compound 286, {(S)-2-[3-(3-Fluoro-2-methoxy-phenyl)-[1,2,4]oxadiazol-5-yl]-pyrrolidin-1-yl}-(5-methoxy-4-methyl-2-pyrimidin-2-yl-phenyl)-methanone]",–
56,16,"COc1c(F)cccc1-c1noc([C@@H]2CCCN2C(=O)c2cc(C)ccc2-c2ccccn2)n1 [compound 203, {(S)-2-[3-(3-Fluoro-2-methoxy-phenyl)-[1,2,4]oxadiazol-5-yl]-pyrrolidin-1-yl}-(5-methyl-2-pyridin-2-yl-phenyl)-methanone]",–
134,78,"COc1ccc(-n2nccn2)c(C(=O)N2CCC[C@H]2c2nc(-c3ccccc3OC)no2)c1 [compound 232, {(S)-2-[3-(2-Methoxy-phenyl)-[1,2,4]oxadiazol-5-yl]-pyrrolidin-1-yl}-(5-methoxy-2-[1,2,3]triazol-2-yl-phenyl)-methanone]",–
3430,2140,"Cc1ccc(-n2nccn2)c(C(=O)N2CCC[C@H]2c2cn(-c3ccccc3)nn2)c1 [Example 536, (5-Methyl-2-[1,2,3]triazol-2-yl-phenyl)-[(S)-2-(1-phenyl-1H-[1,2,3]triazol-4-yl)-pyrrolidin-1-yl]-methanone]",–
115,465,"Cc1ccc(-n2nccn2)c(C(=O)N2CCC[C@H]2c2ncc(-c3ccccc3)o2)c1 [Example 461, (5-Methyl-2-[1,2,3]triazol-2-yl-phenyl)-[(S)-2-(5-phenyl-oxazol-2-yl)-pyrrolidin-1-yl]-methanone]",–
